Laboratory results: PMC4038472, “Exploring the Potential of Flubendazole in Filariasis Control: Evaluation of the Systemic Exposure for Different Pharmaceutical Preparations” (PLoS Neglected Tropical Diseases, 2014)
Like-named read-outs stand apart in the source and are kept apart here.

Assays:
[1] = type: in vivo; settings: for Time at which peak plasma concentrations were observed: range according to the experimental group and animal species (rats and jirds), FLBZ 5 mg/kg
Protocol: (§1) Jirds and rats were randomly allocated into four experimental groups (44 animals each). Experimental animals received the following treatments: FLBZ-CDoral, dosed orally (administered volume 0.25 and 1 mL for jirds and rats, respectively) in a CD-based solution (Cavasol); FLBZ-CDsc, dosed subcutaneously (sc) (injection volume of 0.25 and 1 mL for jirds and rats, respectively) in a CD-based solution (Cavitron); FLBZ-TWEEN, dosed sc (injection volume of 0.1 and 0.4 mL for jirds and rats, respectively) in a Tween-based formulation; and FLBZ-CMC, dosed orally (same volume as for FLBZ-CDoral) in a CMC-based suspension. The oral dose was administered using an intragastric tube. All treatments were given as a single dose of 5 mg/kg. The dose was selected because it is the dose previously reported in efficacy studies performed in the murine model. At defined time-points following treatment (5, 15 and 30 min, 1, 2, 3, 4, 6, 9, 12 and 16 h), blood samples were collected (n = 4 per time point) in heparinized plastic tubes. Plasma was separated by centrifugation at 2000× g for 15 min, placed into plastic tubes and frozen at −20°C until analysis by HPLC to quantify FLBZ, R-FLBZ and H-FLBZ plasma concentrations. After sc administration of the formulations, potential injection site reactions were evaluated by direct visual observation at the sampling time.
Chromatography was performed on a Shimadzu HPLC platform (Shimadzu Corporation, Kyoto, Japan), with two LC-10AS solvent pumps, an automatic sample injector (SIL-10A) with a 50 µL loop, an ultraviolet-visible spectrophotometric detector (UV) (SPD-10A) reading at 292 nm, a column oven (Eppendorf TC-45, Eppendorf, Madison, WI, USA) set at 30°C, and a CBM-10A integrator. Data and chromatograms were collected and analyzed using the Class LC10 software (SPD-10A, Shimadzu Corporation, Kyoto, Japan). The C18 reversed-phase column (5 µm, 250 mm×4.6 mm) was Kromasil (Kromasil®, Sweden). […]
Plasma samples (100 or 200 µL for jirds and rats, respectively) were spiked with OBZ as internal standard. […] Complete validation of the analytical procedures for extraction and quantification of drug and metabolites in plasma was performed before starting the analysis of experimental samples. […] The limit of quantification (FLBZ and metabolites was 0.01 µg/mL), defined as the lowest measured concentration with a CV <20%, accuracy of ±20% and absolute recovery ≥70%.
The peak concentration (Cmax) and time to peak concentration (Tmax) were read from the plotted concentration–time curve for each analyte. The area under the concentration–time curve from 0 up to the limit of quantification (AUC0-LOQ) for FLBZ and metabolites was calculated by the trapezoidal rule, using the PKSolutionTM computer program (Summit Research Services, Ashland, OR, USA). […]

[2] = Plasma pharmacokinetics of FLBZ and metabolites after oral or sc FLBZ formulations in jirds; type: in vivo, jirds (Meriones unguiculatus)
Protocol: as §1, with “All treatments were given as a single dose of 5 mg/kg. The dose was selected because it is the dose previously reported in efficacy studies performed in the murine model. At defined time-points following treatment (5, 15 and 30 min, 1, 2, 3, 4, 6, 9, 12 and 16 h), blood samples were collected (n = 4 per time point) in heparinized plastic tubes.” left out
Chromatography was performed on a Shimadzu HPLC platform (Shimadzu Corporation, Kyoto, Japan), with two LC-10AS solvent pumps, an automatic sample injector (SIL-10A) with a 50 µL loop, an ultraviolet-visible spectrophotometric detector (UV) (SPD-10A) reading at 292 nm, a column oven (Eppendorf TC-45, Eppendorf, Madison, WI, USA) set at 30°C, and a CBM-10A integrator. […]

[3] = design: method as in earlier work; settings: pigs after FLBZ treatment; cited from earlier work
[4] = mouse, in vivo; cited from earlier work

Row | SMILES | Time at which peak plasma concentrations were observed [1] | H-FLBZ concentrations as share of the total amount of drug recovered in plasma ([2]; FLBZ-CD (oral or sc) or FLBZ-TWEEN, 5 mg/kg) | H-FLBZ as share of total drug measured in the bloodstream [3] | Amount of R-FLBZ metabolite present in the bloodstream ([1]; rat, in vivo) | R-FLBZ AUC0-LOQ as share of the total drug recovered from plasma ([1]; rat, in vivo, 5 mg/kg) | R-FLBZ AUC0-LOQ as share of the total drug recovered from plasma ([2]; the different groups, FLBZ 5 mg/kg) | Increase of systemic exposure compared to the conventional FLBZ suspension [4] | Plasma AUC, fold higher than conventional suspension [4] | Plasma Cmax, fold higher than conventional suspension [4]
1 | Nc1nc2cc(C(=O)c3ccc(F)cc3)ccc2[nH]1 [H-FLBZ] | 3.0 to 5.2 h | 10–20% | 97% | – | – | – | – | – | –
2 | COC(=O)Nc1nc2ccc(C(O)c3ccc(F)cc3)cc2[nH]1 (stereo not shown) [R-FLBZ] | – | – | – | only trace amounts | about 10% | about 10% | – | – | –
3 | COC(=O)Nc1nc2cc(C(=O)c3ccc(F)cc3)ccc2[nH]1 [FLBZ, flubendazole] | 0.7 to 3.2 h | – | – | – | – | – | more than 25 fold | 27 fold | 28 fold
